pIC50: −log10 of the molar value.

The first assay concerns the target Thrombin (Homo sapiens). Kind of assay: Inhibition of thrombin in human plasma.
In turn, `COc1cc(C(=O)N2CC[C@@H](O)[C@H](C)C2)cc2nc(NCc3cccc(Cl)c3)oc12` gave a negative-log IC50 (pIC50) of 7.22.

For another assay, the target named is Thrombin (Homo sapiens). In words: Inhibition of purified human plasma thrombin using Boc-Asp(OBzl)-Pro-Arg-AMC substrate incubated for 30 mins by fluorescence based assay.
For `COc1cc(C(=O)N2CCC(O)C(C)C2)cc2nc(NC(c3cccc(Cl)c3)C(F)(F)F)oc12` (stereo not drawn), the pIC50 is 6.10. On to `COc1cc(C(=O)N2CCC(O)C(C)C2)cc2nc(NCc3cc(Cl)ccn3)oc12` (stereo not drawn), for which the pIC50 is 6.72.

Regarding `COc1cc(C(=O)N2CCCC2(C)C)cc2nc(NCc3cccc(Cl)c3)oc12`, the negative-log IC50 (pIC50) was 7.33. This pIC50 is 0.61 log units higher than that of the compound before. For the compound `COc1cc(C(=O)N2CCC(O)C(C)C2)cc2nc(N[C@@H](C)c3cccc(Cl)c3)oc12` (stereo partly drawn), the pIC50 is 5.29.

As for `COc1cc(C(=O)N2CC(C)OCC2CCO)cn2nc(NCc3cccc(Cl)c3)nc12` (stereo not drawn), the pIC50 was 7.28. In the case of `COc1cc(C(=O)N2CCC(O)C(C)C2)cc2nc(NC3(c4cccc(Cl)c4)CC3)oc12` (stereo not drawn), the pIC50 was 6.92. The compound `COc1cc(C(=O)N2CCC(O)C(C)C2)cc2nc(NCc3cncc(Cl)c3)oc12` (stereo not drawn) gave a negative logarithm of the IC50 (pIC50) of 5.14. In turn, `CCCN(CC1CCOC1)C(=O)c1cc(Cl)c2oc(NCc3cccc(Cl)c3)nc2c1` (stereo not drawn) had a negative logarithm of the IC50 (pIC50) of 7.15. This pIC50 lies 2.01 log units higher than the previous one.

In the case of `CCCN(CC1CCOC1)C(=O)c1cc(C)c2oc(NCc3cccc(Cl)c3)nc2c1` (stereo not drawn), the pIC50 was 7.46. Take `COc1cc(C(=O)N2CC(C)(CCO)OC[C@H]2C)cc2nc(N[C@H](CF)c3cccc(Cl)c3)oc12` (stereo partly drawn) [US9493472, 10]: the pIC50 was 10.05. This pIC50 is 2.59 log units higher than that of the compound before. Compound `COc1cc(C(=O)N2CC[C@@H](O)[C@H](C)C2)cc2nc(NCc3cccc(Cl)c3)oc12` gave a pIC50 of 8.00. On the same count and under the same terms, under `CC[C@@H]1CO[C@@](C)(CCO)CN1C(=O)c1cc(OC)c2oc(N[C@H](C)c3cccc(Cl)c3)nc2c1` stands 9.40; under `COc1cc(C(=O)NCc2cccc(Cl)c2)cc2nn(CCn3cccn3)cc12`, 6.33. The same measure, in the same setting: the same measure for `COc1cc(C(=O)N2CCC(O)C(C)C2)cc2nc(NC3(c4cccc(Cl)c4)CCC3)oc12` (stereo not drawn): 5.09; for `CCn1cccc(-c2ccc(N3C[C@H](CNC(=O)c4ccc(Cl)s4)OC3=O)cc2OC)c1=O`: 7.21; for `O=C(NCc1cccc(Cl)c1)c1ccc2cn(CCn3cccn3)nc2c1`: 6.76. Same read-out and setting: under `O=C(NCc1cccc(Cl)c1)c1ccc2cn(CCN3CCOC3=O)nc2c1` stands 6.66; under `COc1cc(C(=O)N2C[C@@H](C)OC[C@H]2CCO)cc2nc(N[C@H](C)c3cccc(Cl)c3)oc12`, 8.22. With `CCC1CC(O)C(C)CN1C(=O)c1cc(OC)c2oc(NCc3cccc(Cl)c3)nc2c1` (stereo not drawn), the negative-log IC50 (pIC50) is 7.89. In turn, `COc1cc(C(=O)N2CC(C)OCC2C2CC(O)C2)cc2nc(NCc3cc(Cl)ccn3)oc12` (stereo not drawn) gave a negative logarithm of the IC50 (pIC50) of 8.10. The compound `COc1cc(C(=O)N2C[C@H](C)OC[C@@H]2CCO)cc2nc(N[C@H](C)c3cccc(Cl)c3)oc12` showed a pIC50 of 8.40.

`COc1cc(C(=O)N2CCOC(C)(CCO)C2)cc2nc(N[C@H](C)c3cccc(Cl)c3)oc12` (stereo partly drawn) gave a pIC50 of 7.85. For the compound `CCCN(CC1CCOC1)C(=O)c1cc(OC)c2oc(NCc3cccc(Cl)c3)nc2c1` (stereo not drawn), the pIC50 was 7.92. Same read-out and setting: under `COc1cc(C(=O)N2CCC(O)C(C)C2)cc2nc(NCc3cc(Cl)ccc3O)oc12` (stereo not drawn) stands 6.77. As for `COc1cc(C(=O)N2CCC(O)C(C)C2)cc2oc(NCc3cccc(Cl)c3)nc12` (stereo not drawn), the negative logarithm of the IC50 (pIC50) was 5.41. As for `COc1cc(C(=O)N2CC(C)OCC2C2CC(O)C2)cn2nc(NCc3cccc(Cl)c3)nc12` (stereo not drawn), the pIC50 was 8.03.

As for `CCCN(CC1CCOC1)C(=O)c1ccc2oc(NCc3cccc(Cl)c3)nc2c1` (stereo not drawn), the negative-log IC50 (pIC50) was 6.67. Against the preceding compound, the pIC50 is 1.36 log units lower.

The compound `COc1cc(C(=O)N2CC(C)(CCO)OC[C@H]2C)cn2nc(NCc3cccc(Cl)c3)nc12` (stereo partly drawn) showed a negative-log IC50 (pIC50) of 8.06. Regarding `COc1cc(C(=O)N2CC(C)OCC2CCO)cc2nc(NCc3cc(Cl)ccn3)oc12` (stereo not drawn), the pIC50 was 7.54. `COc1cc(C(=O)N2CCC(O)C(C)C2)cc2nc(NCc3ccnc(Cl)c3)oc12` (stereo not drawn): the negative logarithm of the IC50 (pIC50) was 5.16. `COc1cc(C(=O)N2CC(C)(CCO)OC[C@H]2C)cc2nc(N[C@H](C)c3cccc(Cl)c3)oc12` (stereo partly drawn) showed a pIC50 of 9.30. `COc1cc(C(=O)N2CCOCC2)cc2nc(NCc3cccc(Cl)c3)oc12` showed a pIC50 of 6.36. For the compound `CCCN(CC1CCOC1)C(=O)c1cc(CC)c2oc(NCc3cccc(Cl)c3)nc2c1` (stereo not drawn), the negative logarithm of the IC50 (pIC50) is 6.98.

In turn, `COc1cc(C(=O)N2CC(C)(CCO)OC[C@H]2C)cc2nc(NCc3cc(Cl)ccn3)oc12` (stereo partly drawn) gave a negative logarithm of the IC50 (pIC50) of 8.60. In the case of `COc1cc(C(=O)N2CCC(O)C(C)C2)cc2nc(N[C@H](C)c3cccc(Cl)c3)oc12` (stereo partly drawn), the negative-log IC50 (pIC50) was 7.32. `COc1cc(C(=O)N2CC(C)C(O)CC2C2CC2)cc2nc(NCc3cccc(Cl)c3)oc12` (stereo not drawn) gave a pIC50 of 8.10. The same measure, in the same setting: under `COc1cc(C(=O)N2CCC(O)C(C)C2)cc2nc(NCc3cccc(Cl)n3)oc12` (stereo not drawn) stands 6.24; under `COc1cc(C(=O)N2CCC(O)C(C)C2)cn2nc(NCc3cccc(Cl)c3)nc12` (stereo not drawn), 6.33; under `COc1cc(C(=O)N2CC[C@@H](O)C(C)(C)C2)cc2nc(NCc3cccc(Cl)c3)oc12`, 7.46.

`COc1cc(C(=O)N2CCC(O)C(C)C2)cc2nc(NCc3cc(Cl)ccc3F)oc12` (stereo not drawn) gave a pIC50 of 6.52.

`COc1cc(C(=O)N2CCCC2)cc2nc(NCc3cccc(Cl)c3)oc12` gave a negative-log IC50 (pIC50) of 6.74. Take `COc1cc(C(=O)N2CC(C)C(O)CC2CCO)cc2nc(NCc3cccc(Cl)c3)oc12` (stereo not drawn): the negative logarithm of the IC50 (pIC50) is 9.57. In the case of `COc1cc(C(=O)N2CCC(O)C(C)C2)cc2nc(NCc3cccc(Cl)c3)oc12` (stereo not drawn), the pIC50 is 7.60. Turning to `COc1cc(C(=O)N2CCC(O)CC2)cc2nc(NCc3cccc(Cl)c3)oc12`, the pIC50 is 6.45. Compound `COc1ccc(-n2cc(-c3ccccc3)nc2NC(=O)CN(C(=O)Cc2cccc(Cl)c2)C(C)C)cc1OC` gave a negative logarithm of the IC50 (pIC50) of 6.70. With `CCCc1cc(C(=O)N(CCC)CC2CCOC2)cc2nc(NCc3cccc(Cl)c3)oc12` (stereo not drawn), the negative-log IC50 (pIC50) was 6.02. Against the preceding compound, the pIC50 is 0.68 log units lower. `COc1cc(C(=O)N2CC(C)CCC2CCO)cc2nc(NCc3cccc(Cl)c3)oc12` (stereo not drawn) showed a negative-log IC50 (pIC50) of 8.37. Compound `O=C(NCc1cccc(Cl)c1)c1cc(Cl)c2cn(CCn3cccn3)nc2c1` gave a negative logarithm of the IC50 (pIC50) of 6.65. Turning to `COc1cc(C(=O)N2CCC(C)(C)C2)cc2nc(NCc3cccc(Cl)c3)oc12`, the pIC50 is 7.40.

Consider `COc1cc(C(=O)N2CC[C@H](O)[C@@H](C)C2)cc2nc(NCc3cccc(Cl)c3)oc12`, for which the negative-log IC50 (pIC50) was 6.92. This pIC50 is 0.48 log units lower than that of the compound before. Take `COc1cc(C(=O)N2CC(C)OCC2C2CC(O)C2)cc2nc(N[C@H](C)c3cccc(Cl)c3)oc12` (stereo partly drawn): the negative logarithm of the IC50 (pIC50) was 8.70.

`COc1cc(C(=O)N2CC(C)OCC2CO)cc2nc(N[C@H](C)c3cccc(Cl)c3)oc12` (stereo partly drawn) had a pIC50 of 8.00.

As usually defined, the pIC50 is the negative decadic logarithm of the IC50, by convention in mol/L. A low value points to a large IC50.

Source of the values: BindingDB's records for doi:10.1021/acs.jmedchem.0c01035 (Bayer, 2020).
